{
  "source": "patent EP1028734B1",
  "about": "“USE OF SPECIFIC STEADY-STATE R-TYPE CALCIUM CHANNEL BLOCKERS” (priority 1997, dated 1999)",
  "key": {"[1]": {"experiment": "writhe responses in mice (acetic acid, acetylcholine, kaolin)", "type": "in vivo", "settings": "2.7 to 27 mol/kg, i.p.", "description": "The antinociceptive actions of compound MV 8612 and MV 8608 were investigated in different models of nociception in mice as reported previously (Vaz et al., 1996, J. Pharmacol. Exp. Ther. 278:304-312)."}, "[2]": {"tested_on": "rat uterus", "settings": "Calixto et al., 1987; cited from earlier work"}, "[3]": {"tested_on": "double-perfused mesenteric bed of the rat", "experiment": "double-perfused mesenteric bed of the rat", "description": "The inhibitory properties of MV8608 are specific for PAF as the response to ACh (arterial) and Angll (venous) are unaffected by the pregnane-containing moiety."}, "[4]": {"tested_on": "human aortic vascular smooth muscle cell line", "experiment": "spontaneous proliferation of human aortic vascular smooth muscle cell line", "type": "cell-based", "settings": "MV8608 10^-8M, MV8612 10^-8M, nifedipine 10^-7M, Figure 28"}, "[5]": {"tested_on": "L-type Ca^2+ channel", "experiment": "whole-cell voltage clamp, L-type ICa of heart cells of chick embryos", "type": "cell-based", "experimental": "(§1) Single cells of different types in culture were prepared from biopsies of human, chick and rabbit. Known and accepted methods for the isolation of fast Na^+ current, T, L and R-type Ca^2+ channels as well as delayed outward K^+ current were used (Bkaily 1994, supra).\n(§2) The compounds to be tested are added to the appropriate extracellular solution after recording a stable ionic current or normal steady-state level of [Ca]n and [Ca]n The effect of different concentrations of compounds are tested on the different type of current and [Ca]i of the different cell types. The effect of each concentration of the compounds in function of the time of exposure are then determined. Once the steady-state effect is reached, the second concentration is added, etc.\nIn another series of experiments (n=5), the effect of different concentrations of MV8608 (10^-11 to 10^-6M) were tested on the L-type ICa of heart cells of chick embryos using the whole-cell and experimental conditions and protocols described elsewhere by the inventors (Bkaily G. et al., 1993, supra). As for the T-type ICa' the L-type ICa was not affected by 10^-11 to 10^-10M MV8608.\nIn another series of experiments (n=4), we tested the effect of MV8612 on the L-type Ca^2+ current (ICa) in chick embryonic heart cells using the whole-cell voltage clamp technique referred to above. Superfusion with 10^-9M of MV8612 decreased ICa amplitude by 10% and increasing the concentration of the compound up to 10^-8M further decreased the current amplitude by 25%. Higher concentration of MV8612 (10^-7M) decreased the ICa amplitude by 62%."}, "[6]": {"experiment": "rat paw oedema", "type": "in vivo, rats", "experimental": "In this experiment (N =5 to 6 animals per group), the anti-oedemagenic action of compounds MV 8608 and MV 8612 against bradykinin and several mediators which are reported to be involved in the inflammatory processes, was evaluated. The procedures used to perform these experiments have been reported elsewhere (Neves et al., 1993, Eur. J. Pharmacol. 243:213-219; Campos et al., 1995, Br. J. Pharmacol. 114:1005-1013; Campos et al., 1996, Br. J. Pharmacol. 117:793-798; Eur. J. Pharmacol. 316:227-286). […] As reported previously, in rats treated […] prior to a systemic injection of LPS, both B1 and B2 kinin selective agonists caused marked oedema formation (Figures 37C and D (Campos et al., 1996, supra))."}, "[7]": {"tested_on": "TTX-sensitive fast Na^+ current", "experiment": "whole-cell voltage clamp, TTX-sensitive fast Na+ current in single heart cell (MV8608)", "type": "cell-based", "settings": "10^-11M to 10^-7M, n=5", "experimental": "as §1, §2\nIn one series of experiments (n=5), the effect of different concentrations of MV8608 (10^-11M to 10^-7M) on the TTX-sensitive fast Na^+ current were tested using the whole-cell voltage clamp technique and experimental conditions reported elsewhere (Bkaily et al., 1988, supra; 1993, supra)."}, "[8]": {"tested_on": "R-type Ca^2+ channel", "experiment": "confocal Fluo-3 3-dimension measurement of cytosolic [Ca]c and nuclear [Ca]n", "type": "cell-based, chick, human"}, "[9]": {"settings": "100 nmol/paw, rats treated 30 days prior (text LPS, Figure 37 BCG)"}, "[10]": {"settings": "10 and 100 nmol/paw co-injected"}, "[11]": {"settings": "10 and 100 nmol/paw, dose-dependant"}},
  "data": [
    {"substance": "(15R, 16R, 20S)-14, 16:15,20:16,21-triepoxi-15,16-seco 14β, 17α-pregn-5-ene-3β, 15-diol [MV8608]", "values": [
      {"measurement": "antinociceptive action in the same model of pain (writhing)", "setting": "[1]", "value": "only partial or even no antinociceptive action"},
      {"measurement": "contraction of rat uterus induced by BK", "setting": "[2]", "value": "selective in its ability to inhibit"},
      {"measurement": "response to ACh (arterial) and AngII (venous)", "setting": "[3]", "value": "unaffected"},
      {"measurement": "PAF induced arterial vasodilatation and venconstriction", "setting": "[3]; 1 µM, Figure 24", "value": "blocked"},
      {"measurement": "PAF-induced responses", "setting": "[3]; concentration series", "value": "concentration-dependent inhibition"},
      {"measurement": "spontaneous proliferation", "setting": "[4]", "value": "significantly decreased"},
      {"measurement": "ICa amplitude (L-type), further change", "setting": "[5]; 5 x 10^-7M", "value": "a further slight increase"},
      {"measurement": "decrease of ICa amplitude (L-type)", "setting": "[5]; 10^-9M", "value": 10, "unit": "%"},
      {"measurement": "L-type ICa", "setting": "[5]; 10^-11 to 10^-10M", "value": "not affected"},
      {"measurement": "oedema induced by prostaglandin E2 (PGE2)", "setting": "[6]; 100 nmol/paw", "value": "partially inhibited"},
      {"measurement": "oedema induced by substance P", "setting": "[6]; 100 nmol/paw", "value": "unaffected"},
      {"measurement": "paw oedema induced by PAF", "setting": "[6]; 100 nmol/paw", "value": "consistently inhibited"},
      {"measurement": "bradykinin-induced rat paw oedema", "setting": "[6]; [9]", "value": "significantly inhibited"},
      {"measurement": "des-Arg^9-BK-induced rat paw oedema", "setting": "[6]; [9]", "value": "significantly inhibited"},
      {"measurement": "carrageenan-induced paw oedema", "setting": "[6]; 10 and 100 nmol/paw", "value": "significantly prevented"},
      {"measurement": "dextran-induced paw oedema", "setting": "[6]; [10]", "value": "significantly prevented"},
      {"measurement": "histamine-induced paw oedema", "setting": "[6]; [10]", "value": "significantly prevented"},
      {"measurement": "serotonin-induced paw oedema", "setting": "[6]; [10]", "value": "significantly prevented"},
      {"measurement": "paw oedema induced by des-Arg^9-bradykinin", "setting": "[6]; 10 and 100 nmol/paw co-injected, animals treated with LPS", "value": "dose-related inhibition"},
      {"measurement": "oedema formation induced by subplantar injection of ovalbumin", "setting": "[6]; 10 and 100 nmol/paw, animals actively sensitised", "value": "inhibited significantly"},
      {"measurement": "bradykinin-induced hindpaw oedema", "setting": "[6]; 10 and 100 nmol/paw, animals treated with LPS", "value": "no significant effect"},
      {"measurement": "potentiation of paw oedema by low dose of des-Arg^9-BK plus PAF", "setting": "[6]; [11]", "value": "prevented the potentiation"},
      {"measurement": "potentiation of paw oedema by low dose of des-Arg^9-BK with PGE2", "setting": "[6]; [11]", "value": "prevented the potentiation"},
      {"measurement": "effect on the TTX-sensitive fast Na^+ current", "setting": "[7]", "value": "no effect"},
      {"measurement": "sustained increase of [Ca]c and [Ca]n induced with high concentration of PAF (10^-7M)", "setting": "[8]; 10^-6M of compound, back to the control level, Figure 29B", "value": "significantly decrease"},
      {"measurement": "cytosolic and nuclear Ca^2+ sustained overload induced by 30mM KCl and PAF", "setting": "[8]; 10^-7M of compound, nifedipine present", "value": "blocked both the cytosolic and nuclear Ca^2+ sustained overload"},
      {"measurement": "prevention of stimulation of the R-type Ca^2+ channel by sustained depolarization", "setting": "[8]; 10^-8 M and 10^-7 M, dose-dependent", "value": "prevented"},
      {"measurement": "prevention of high PAF (10^-7 M) action", "setting": "[8]; 10^-9M of compound", "value": "succeeded in preventing"},
      {"measurement": "sustained depolarization induced sustained increase of [Ca]c and [Ca]n", "setting": "[8]; heart cells, Figure 29 panel A", "value": "blocked completely"}
    ]}
  ]
}
